As a reminder, the IC50 is the concentration that gives 50% inhibition.

The results in this text go back to PMC7926793, “Synthesis and Biological Evaluation of 1-(Diarylmethyl)-1H-1,2,4-triazoles and 1-(Diarylmethyl)-1H-imidazoles as a Novel Class of Anti-Mitotic Agent for Activity in Breast Cancer” (Pharmaceuticals, 2021).

The test system of one series is A549/ATCC. In words: NCI 60 cell line screen (Non-Small Cell Lung Cancer). It is filed as cell-based, human. To be noted: single dose 10 µM.
The next series deals with PC-3. The series can be described thus: NCI 60 cell line screen (Prostate cancer). It is filed as cell-based, human. Conditions: PC-3, single dose 10 µM.
For a further series, the system named is NCI 60 cell line panel. The series can be described thus: NCI 60 cell line screen, panel means. The series is classed as cell-based, human. To be noted: for Mean Growth percentage: 60 cell line panel, single dose 10 µM; for mean growth: 10 μM.
In a further series the test system is SF295. In words: NCI 60 cell line screen (CNS Cancer). The series is classed as cell-based, human. Conditions: SF295, single dose 10 µM.
The next series has as its system ACHN. In words: NCI 60 cell line screen (Renal Cancer). Conditions: single dose 10 µM. The series is classed as cell-based, human.
The test system of another series is OVCAR-3. In words: NCI 60 cell line screen (Ovarian Cancer). It is filed as cell-based, human. Conditions: OVCAR-3, single dose 10 µM.
The test system of another series is HCT-116. The series can be described thus: NCI 60 cell line screen (Colon Cancer). It is filed as cell-based, human. Conditions: HCT-116, single dose 10 µM.
The test system of a further series is T-47D. The series can be described thus: NCI 60 cell line screen (Breast Cancer). The series is classed as cell-based, human. Conditions: single dose 10 µM.
In the next series the test system is SK-OV-3. The series can be described thus: NCI 60 cell line screen (Ovarian Cancer). The series is classed as cell-based, human. To be noted: SK-OV-3, single dose 10 µM.
For another series, the system named is HCT-15. The series can be described thus: NCI 60 cell line screen (Colon Cancer). It is filed as cell-based, human. Conditions: HCT-15, single dose 10 µM.
Another series deals with HOP-92. In words: NCI 60 cell line screen (Non-Small Cell Lung Cancer). To be noted: HOP-92, single dose 10 µM. It is filed as cell-based, human.
The test system of the next series is SR. The series can be described thus: NCI 60 cell line screen (Leukemia). It is filed as cell-based, human. To be noted: single dose 10 µM.
Another series concerns IGROV1. The series can be described thus: NCI 60 cell line screen (Ovarian Cancer). The series is classed as cell-based, human. To be noted: IGROV1, single dose 10 µM.
A further series has as its system SF-268. In words: NCI 60 cell line screen (CNS Cancer). It is filed as cell-based, human. To be noted: SF-268, single dose 10 µM.
Another series deals with HT29. The series can be described thus: NCI 60 cell line screen (Colon Cancer). It is filed as cell-based, human. To be noted: HT29, single dose 10 µM.
In the next series the test system is NCI-H552. The series can be described thus: NCI 60 cell line screen (Non-Small Cell Lung Cancer). The series is classed as cell-based, human. To be noted: NCI-H552, single dose 10 µM.
The test system of a further series is RXF 393. The series can be described thus: NCI 60 cell line screen (Renal Cancer). It is filed as cell-based, human. Conditions: RXF 393, single dose 10 µM.
Series [1] concerns MCF-7 human breast cancer cells. The series can be described thus: alamarBlue cell viability assay. The series is classed as cell-based. To be noted: Homo sapiens, 72 h; for viability at 1 µM: MCF7, read-out: cell viability (viable cells). The procedure:
(§1) The human breast carcinoma cell line MCF-7 was purchased from the European Collection of Animal Cell Cultures (ECACC) and cultured in Eagles minimum essential medium with 10% foetal bovine serum, 2 mM L-glutamine, and 100 μg/mL penicillin/streptomycin. The medium was supplemented with 1% non-essential amino acids. The human breast carcinoma cell line MDA-MB-231 was purchased from the ECACC. MDA-MB-231 cells were maintained in Dulbecco’s modified Eagle’s medium (DMEM) supplemented with 10% (v/v) foetal bovine serum, 2 mM L-glutamine, and 100 μg/mL penicillin/streptomycin (complete medium). HL-60 cells were derived from a patient with acute myeloid leukaemia and were obtained from the ECACC (Salisbury, UK). Cells were cultured in RPMI-1640 Glutamax medium supplemented with 10% FCS media and 100 μg/mL penicillin/streptomycin. MCF-10A cells were obtained as a kind gift from Dr Susan McDonnell, School of Chemical and Bioprocess Engineering, University College Dublin and were cultured in Dulbecco’s Modified Eagle Medium: Nutrient Mixture F-12 (DMEM/F12; Gibco) supplemented with 5% horse serum (Invitrogen), 20 ng mL^−1 epidermal growth factor (Merck Millipore), 0.5 μg mL^−1 hydrocortisone (Sigma,-Aldrich, Arklow, Co. Wicklow, Ireland), 100 ng mL^−1 cholera toxin (Sigma, Aldrich, Arklow, Co. Wicklow, Ireland), 10 μg mL^−1 insulin (Sigma, Aldrich, Arklow, Co. Wicklow, Ireland), and penicillin/streptomycin 5000 U mL^−1 (1%)(Gibco, Biosciences, 3 Charlemont Terrace, Crofton Road, Dun Laoghaire, Co Dublin, A96 K7H7, Ireland). Cells were maintained at 37 °C in 5% CO2 in a humidified incubator. All cells were sub-cultured 3 times/week by trypsinisation using TrypLE Express (1×).
(§2) Cells were seeded at a density of 2.5 × 10^4 cells/well (MCF-7, MDA-MB-231, MCF-10A cells) and 1 × 10^4 cells/well (HL-60) in 96-well plates (200 μL per well). After 24 h, cells were then treated with either medium alone, vehicle control (1% ethanol (v/v)) or with serial dilutions of CA-4 (4a), phenstatin (7a) or selected compounds (0.001–100 μM) in triplicate. Cell proliferation for MCF-7, MDA-MB-231, and MCF-10A cells was analysed using the alamarBlue assay (Invitrogen Corp.) according to the manufacturer’s instructions. After 67–69 h, alamarBlue (10% (v/v)) was added to each well, and plates were incubated for 3–5 h at 37 °C in the dark. Fluorescence was read using a 96-well fluorimeter with excitation at 530 nm and emission at 590 nm. Results were expressed as percentage viability relative to vehicle control (100%).
(Alamar Blue is a resazurin reagent that responds to reducing activity.)

For the next series, the system named is SNB-75. In words: NCI 60 cell line screen (CNS Cancer). Conditions: SNB-75, single dose 10 µM. It is filed as cell-based, human.
A further series has as its system COLO 205. In words: NCI 60 cell line screen (Colon Cancer). It is filed as cell-based, human. To be noted: COLO 205, single dose 10 µM.
For the next series, the system named is NCI-H226. The series can be described thus: NCI 60 cell line screen (Non-Small Cell Lung Cancer). The series is classed as cell-based, human. Conditions: NCI-H226, single dose 10 µM.
A further series deals with MDA-MB-231/ATCC. The series can be described thus: NCI 60 cell line screen (Breast Cancer). The series is classed as cell-based, human. To be noted: single dose 10 µM.
The nature of series [2]: toxicity evaluation, alamarBlue assay. It is filed as cell-based, human. To be noted: human, MCF-10A cells, 72 h, read-out: percentage of viable cells.
In series [3] the test system is MDA-MB-231 human breast cancer cells. The series can be described thus: alamarBlue cell viability assay. The series is classed as cell-based. Conditions: Homo sapiens, MDA-MB-231, 72 h, read-out: Antiproliferative Activity MDA-MB-231 Cells IC50. The procedure: as §1, §2

Values joined by “and” are separate entries in the source; they are usually repeats but may differ in a detail not shown here. Equal values may be shown once.

Take `COc1ccc(C(c2cc(OC)c(OC)c(OC)c2)N2CCCCC2)cc1` (stereo not shown) [26b, 1-((4-Methoxyphenyl)(3,4,5-Trimethoxyphenyl)Methyl)Piperidine]: the Growth percentage in the series on A549/ATCC is on record as 49.14%; in the series with PC-3, 25.08%; in the series with SF295, 18.75%; with ACHN it was 50.89%; with OVCAR-3 it was 8.29%; in the series on HCT-116, 29.08%. Moreover, the Growth percentage with T-47D amounted to 33.59%; in the series on SK-OV-3, 16.68%; in the series on HCT-15, 20.63%; in the series on HOP-92, 44.15%; in the series with SR it was 18.46%; with IGROV1 it was 47.13%. Also, the Growth percentage turned out to be 47.22% with SF-268; 7.93% in the series with HT29; 19.85% in the series with NCI-H552; 25.99% in the series with RXF 393; 26.61% in the series with SNB-75; 16.14% in the series on COLO 205. Also, the values for the Growth percentage with NCI-H226 and with MDA-MB-231/ATCC were 55.46% and 53.09%, respectively. The “Mean Growth percentage” value in the series on NCI 60 cell line panel is 34.17% and 34.2%. In addition, the mean growth is on record as 30.3% in the series with NCI 60 cell line panel (breast cancer panel) and 23.5% with NCI 60 cell line panel (leukaemia panel). The viability at 1 µM in series [1] was determined as 78%.
As to `COc1ccc(C(c2cc(OC)c(OC)c(OC)c2)N2CCN(Cc3ccccc3)CC2)cc1` (stereo not shown) [27d], the Growth percentage in the series with A549/ATCC was found to be 78.38%; with PC-3, 59.28%; with SF295, 68.71%; in the series on ACHN, 92.77%; in the series on OVCAR-3 it was 68.96%; with HCT-116, 56.66%. The Growth percentage in the series on T-47D came to 75.11%; in the series on SK-OV-3, 66.24%; in the series on HCT-15 it was 47.63%; with HOP-92 it was 70.59%; with SR, 16.10%; in the series with IGROV1, 62.96%. Besides, the Growth percentage with SF-268 came to 86.44%; with HT29, 28.31%; with NCI-H552, 52.38%; with RXF 393 it was 72.30%; with SNB-75, 92.44%; with COLO 205, 61.78%. Further, the Growth percentage in the series with NCI-H226 is 85.40%; in the series with MDA-MB-231/ATCC it was 71.05%. In addition, the “Mean Growth percentage” value in the series with NCI 60 cell line panel is 65.45% and 65.5%.
For the compound `COc1ccc(C(c2cc(OC)c(OC)c(OC)c2)n2nccn2)cc1O` (stereo not shown) [compound 24], the viability at 72 h, 0.1 µM in [2] (0.1 μM) stood at 96%. Also, in series [2] (1 μM), the viability at 72 h, 1 µM came out at 71%. Also, the viability at 72 h, 10 µM in series [2] (10 μM) stood at 61%. The IC50 in [1] (MCF7, 72 h, alamarBlue, read-out: Antiproliferative Activity MCF-7 Cells IC50) was found to be 52 ± 40 nM; in [3] it was 74 ± 30 nM. The viability at 1 µM in [1] was 27%.
Regarding `COc1ccc(C(c2cc(OC)c(OC)c(OC)c2)N2CCCC2)cc1` (stereo not shown) [25g], the Growth percentage in the series with A549/ATCC worked out at 77.65%; in the series with PC-3 it was 63.89%; in the series with SF295, 69.71%; in the series on ACHN it was 103.18%; in the series on OVCAR-3 it was 66.63%; in the series on HCT-116, 62.27%. The Growth percentage in the series on T-47D came out at 89.77%; in the series with SK-OV-3 it was 77.46%; with HCT-15 it was 52.67%; in the series with HOP-92, 85.48%; in the series with SR it was 23.87%; in the series on IGROV1, 82.87%. For the same compound, the Growth percentage in the series with SF-268 is listed as 84.26%; in the series on HT29, 40.59%; in the series with NCI-H552, 58.47%; in the series with RXF 393, 103.13%; in the series with SNB-75, 84.06%; with COLO 205, 71.23%. Also, the results for the Growth percentage with NCI-H226 and in the series with MDA-MB-231/ATCC were 87.61% and 80.82%, respectively. Also, the “Mean Growth percentage” value in the series with NCI 60 cell line panel is 73.14% and 73.1%. The viability at 1 µM in [1] came to 82%.
